From ChEMBL document CHEMBL4184201, “Inhibition of protein tyrosine phosphatase 1B (PTP1B) and α-glucosidase by xanthones from Cratoxylum cochinchinense, and their kinetic characterization” (Bioorg Med Chem, 2018) come the findings set out here.

As usually defined, the IC50 is the midpoint of a concentration-inhibition curve.

Active and inactive are the calls of the source. The rule behind the calls is not given here.

For assay [1], the target named is T1, Alpha glucosidase (Homo sapiens, UniProt O43451+P10253+P14410+Q2M2H8). As to the kind of experiment: Inhibition of alpha-glucosidase (unknown origin) using PNP-G as substrate measured for 15 mins by spectrophotometry. In kind it is protein assay.
Assay [2] deals with T2, Tyrosine-protein phosphatase non-receptor type 1 (Homo sapiens) (UniProt P18031).
T2 sequence (whole entry): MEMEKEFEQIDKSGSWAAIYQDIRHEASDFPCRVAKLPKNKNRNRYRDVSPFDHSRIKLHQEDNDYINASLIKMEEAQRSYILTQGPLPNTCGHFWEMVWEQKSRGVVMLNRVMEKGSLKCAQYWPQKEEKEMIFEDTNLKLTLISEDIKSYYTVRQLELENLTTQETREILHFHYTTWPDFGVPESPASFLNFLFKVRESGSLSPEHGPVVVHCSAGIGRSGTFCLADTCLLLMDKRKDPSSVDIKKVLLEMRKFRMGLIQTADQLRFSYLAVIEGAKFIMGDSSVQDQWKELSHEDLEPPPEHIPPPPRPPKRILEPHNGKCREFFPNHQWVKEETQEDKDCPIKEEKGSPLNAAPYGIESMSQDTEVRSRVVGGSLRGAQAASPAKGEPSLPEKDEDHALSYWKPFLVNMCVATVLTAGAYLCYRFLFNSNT
Put plainly: Competitive inhibition of recombinant human PTP1B (1 to 322 residues) expressed in Escherichia coli using P-NPP as substrate after 10 mins by Lineweaver-Burk plot analysis.

In assay [3] the target is T3, Tyrosine-protein phosphatase non-receptor type 1 (Homo sapiens, UniProt P18031).
T3 sequence (P18031 whole entry): T2 sequence (whole entry)
As to the kind of experiment: Inhibition of recombinant human PTP1B (1 to 322 residues) expressed in Escherichia coli using P-NPP as substrate after 10 mins by spectrophotometry.

In assay [4] the target is T1, Alpha glucosidase. As to the kind of experiment: Mixed type inhibition of alpha-glucosidase (unknown origin) using PNP-G as substrate by Lineweaver-Burk plot analysis. It is filed as protein assay.
For assay [5], the target named is T3, Tyrosine-protein phosphatase non-receptor type 1. As to the kind of experiment: Inhibition of recombinant human PTP1B (1 to 322 residues) expressed in Escherichia coli using P-NPP as substrate after 10 mins by Dixon plot analysis.
The target of assay [6] is T1, Alpha glucosidase. Put plainly: Inhibition of alpha-glucosidase (unknown origin) using PNP-G as substrate by Dixon plot analysis. It is filed as protein assay.
The target of assay [7] is T3, Tyrosine-protein phosphatase non-receptor type 1. Put plainly: Time dependent inhibition of recombinant human PTP1B (1 to 322 residues) expressed in Escherichia coli using P-NPP as substrate preincubated with enzyme for 30 mins by UV-spectrophotometric method. The note with it: read-out: Ki(app).
The target of assay [8] is T2, Tyrosine-protein phosphatase non-receptor type 1 (Homo sapiens). As to the kind of experiment: Inhibition of recombinant human PTP1B (1 to 322 residues) expressed in Escherichia coli assessed as forward rate constant for enzyme-inhibitor bound conformation using P-NPP as substrate incubated with enzyme for 30 mins by UV-spectrophotometric method.
The target in assay [9] is T1, Alpha glucosidase. Put plainly: Mixed type inhibition of alpha-glucosidase (unknown origin) assessed as enzyme-substrate-inhibitor complex formation using PNP-G as substrate by Lineweaver-Burk plot analysis. In kind it is protein assay.
Assay [10] has as its target T2, Tyrosine-protein phosphatase non-receptor type 1 (Homo sapiens). As to the kind of experiment: Reversible inhibition of recombinant human PTP1B (1 to 322 residues) expressed in Escherichia coli using P-NPP as substrate after 10 mins by spectrophotometry.
The target in assay [11] is T1, Alpha glucosidase. Put plainly: Reversible inhibition of alpha-glucosidase (unknown origin) using PNP-G as substrate measured for 15 mins by spectrophotometry. In kind it is protein assay.

As to `COc1c(O)cc2oc3cc(O)c(CC=C(C)C)c(O)c3c(=O)c2c1CC=C(C)C` [MANGOSTIN], the concentration for half-maximal inhibition (IC50) in assay [1] is 5.7 µM; in assay [3], 5.5 µM. Besides, the “inhibition type (Lineweaver-Burk)” value in assay [2] was “Active”. Moreover, in assay [4], the “Mixed-type inhibition (qualitative)” value is “Active”. Moreover, the Ki in assay [5] is 3.2 µM; in [6], 7.3 µM.

`CC(C)=CCc1c(O)cc2oc3cc(O)c(O)c(CC=C(C)C)c3c(=O)c2c1O`: the IC50 in assay [1] is 1.7 µM; in assay [3], 2.8 µM. Also, the “inhibition type (Lineweaver-Burk)” value in assay [2] was “Active”. The inhibition result in [4] was “Active”. Moreover, the values for the Ki in [5] and in assay [6] were 2.7 µM and 1.4 µM, respectively.

Consider `CC(C)=CCc1c(O)c(CC=C(C)C)c2oc3ccc(O)cc3c(=O)c2c1O`, for which the concentration for half-maximal inhibition (IC50) in assay [1] turned out to be 25.5 µM; in assay [3], 10.5 µM. The “inhibition type (Lineweaver-Burk)” value in [2] was “Active”. Also, the “Mixed-type inhibition (qualitative)” value in assay [4] was “Active”. Moreover, the Ki is 11.1 µM in assay [5] and 19.2 µM in [6].

With `C=C(CCC=C(C)C)C(O)Cc1c(O)c(CC=C(C)C)c(O)c2c(=O)c3cc(O)ccc3oc12` (configuration not stated), the IC50 turned out to be 10.1 µM in assay [1] and 12.5 µM in assay [3]. Also, the “inhibition type (Lineweaver-Burk)” value in assay [2] is “Active”. In addition, the “Mixed-type inhibition (qualitative)” value in [4] is “Active”. Further, the Ki in assay [5] came out at 8.9 µM; in assay [6], 8.2 µM.

Turning to `CC(C)=CCCC(C)(O)C1Cc2c(c(CC=C(C)C)c(O)c3c(=O)c4cc(O)ccc4oc23)O1` (configuration not stated), the IC50 stood at 16.1 µM in assay [1] and 7.2 µM in assay [3]. Moreover, in [2], the “inhibition type (Lineweaver-Burk)” value is “Active”. Also, the “Mixed-type inhibition (qualitative)” value in [4] was “Active”. The Ki in [5] is 3.4 µM; in [6], 9.9 µM.

With `COc1c(O)ccc2c(=O)c3c(O)cc4c(c3oc12)C(C)(C)C(CO)O4` (configuration not stated), the results for the IC50 in [1] and in [3] were 72.7 µM and 52.5 µM, respectively. Also, the “inhibition type (Lineweaver-Burk)” value in assay [2] was “Active”. The “Mixed-type inhibition (qualitative)” value in assay [4] is “Active”. Moreover, the Ki is 32.7 µM in assay [5] and 33.9 µM in assay [6].

As to `CC(C)=CCC/C(C)=C/Cc1c(O)c(CC=C(C)C)c(O)c2c(=O)c3cc(O)ccc3oc12` [COCHINCHINONE A], the IC50 in assay [1] worked out at 17.4 µM; in [3], 5.2 µM. For the same molecule, the “inhibition type (Lineweaver-Burk)” value in [2] was “Active”. Besides, the “Mixed-type inhibition (qualitative)” value in [4] was “Active”. Moreover, the Ki in assay [5] was found to be 3.1 µM; in assay [6], 13.4 µM.

As to `C=C(C)C(O)CC/C(C)=C/COc1ccc2oc3cc(O)cc(O)c3c(=O)c2c1` (configuration not stated), the IC50 in [1] came to 13.7 µM; in assay [3] it was 25.2 µM. The “inhibition type (Lineweaver-Burk)” value in assay [2] was “Active”. Also, the “Mixed-type inhibition (qualitative)” value in assay [4] is “Active”. In addition, the Ki in assay [5] came to 29.5 µM; in assay [6], 13 µM.

For the molecule `CC(C)=CCC/C(C)=C/COc1ccc2oc3cc(O)cc(O)c3c(=O)c2c1`, the IC50 came out at 20.6 µM in [1] and 35.1 µM in assay [3]. Further, in assay [2], the “inhibition type (Lineweaver-Burk)” value is “Active”. Further, the “Mixed-type inhibition (qualitative)” value in [4] is “Active”. The Ki in assay [5] is 19.9 µM; in assay [6], 17.7 µM.

With `C=C(C)C(O)Cc1c(O)c(C/C=C(\C)CCC=C(C)C)c2oc3ccc(O)cc3c(=O)c2c1O` (configuration not stated), the Ki in [7] was 2.4 µM; in assay [9], 6.6 µM; in [5] it was 2.1 to 2.4 µM; in assay [6], 4.2 µM. In addition, the IC50 in assay [1] is 4.8 µM; in assay [3], 2.4 µM. Further, the K in assay [8] was found to be 50000 M⁻¹ s⁻¹. Further, the “inhibition type (Lineweaver-Burk)” value in assay [2] was “Active”. Further, the inhibition result in assay [10] and in assay [11] was “Active” in each case. In [4], the “Mixed-type inhibition (qualitative)” value was “Active”.

Regarding `COc1c(O)cc2oc3cc(O)c(CCC(C)(C)O)c(O)c3c(=O)c2c1CC=C(C)C`, the IC50 came out at 30.7 µM in assay [1] and 24.1 µM in assay [3]. Also, in assay [2], the “inhibition type (Lineweaver-Burk)” value was “Active”. In [4], the “Mixed-type inhibition (qualitative)” value is “Active”. For the same molecule, the figures for the Ki in [5] and in assay [6] were 22.9 µM and 25.1 µM, respectively.

For `CC(C)=CCC/C(C)=C/COc1cc2oc3ccc(O)cc3c(=O)c2c(O)c1CC=C(C)C`, the IC50 in assay [1] was determined as 28.4 µM; in assay [3], 7.05 µM. Besides, the “inhibition type (Lineweaver-Burk)” value in assay [2] was “Active”. Moreover, in assay [4], the “Mixed-type inhibition (qualitative)” value was “Active”. Also, the Ki in assay [5] is 5.1 µM; in assay [6] it was 27.2 µM.
